According to publication PMC4834193 (Journal of medicinal chemistry, 2015):
“Also recorded” adds a separate entry of the source.

Tests used:
human 5-HT2B [1] = target: T1, human 5-HT2B (Homo sapiens, UniProt P41595); details: cited from earlier work
[2] = cited from earlier work
hERG [3] = details: previous studies; cited from earlier work
human 5-HT2A = human 5-HT2A (Homo sapiens, UniProt P28223); assay: Calcium flux; details: from functional EC50 values
C57BL/6J mice = assay: Amphetamine-induced hyperactivity, open field activity; details: 3 mg/kg AMPH; for AMPH-stimulated hyperlocomotion: 10 or 20 mg/kg ip, relative to Veh–AMPH group; for AMPH-stimulated hyperlocomotion at 20 mg/kg: 20 mg/kg ip
human 5-HT2B [4] = target: T1, human 5-HT2B; assay: PDSP binding study, 5-HT2B
5-HT2C receptor = target: T2, 5-HT2C receptor (Homo sapiens, UniProt P28335); assay: PDSP binding study, 5-HT2C
T2 sequence (P28335 33-458): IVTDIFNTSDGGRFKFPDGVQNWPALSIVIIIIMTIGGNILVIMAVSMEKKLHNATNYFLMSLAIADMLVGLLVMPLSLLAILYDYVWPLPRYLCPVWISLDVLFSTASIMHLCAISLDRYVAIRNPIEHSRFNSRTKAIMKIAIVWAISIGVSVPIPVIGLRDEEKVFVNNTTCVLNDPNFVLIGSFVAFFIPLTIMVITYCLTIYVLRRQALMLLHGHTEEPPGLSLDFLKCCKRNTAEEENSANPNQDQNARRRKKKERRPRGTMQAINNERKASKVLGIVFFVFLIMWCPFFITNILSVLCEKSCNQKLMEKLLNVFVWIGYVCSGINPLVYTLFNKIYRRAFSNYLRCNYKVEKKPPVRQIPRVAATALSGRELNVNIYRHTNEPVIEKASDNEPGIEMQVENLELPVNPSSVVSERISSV

CYP3A = assay: CYP inhibition, human liver microsomes; details: substrate midazolam
[5] = clinical trials, compared to placebo group; cited from earlier work
human 5-HT2B [6] = target: T1, human 5-HT2B; assay: Calcium flux
[7] = Brain penetration study in CD1 mice; assay type: in vivo; details: CD1, mouse, intraperitoneal, 10 mg/kg
[8] = system: TA98, TA100, TA1535, and TA1537 strains; assay type: cell-based; details: with/without S9, 10, 50, and 100 µM
hERG [9] = target: hERG (Homo sapiens, UniProt Q12809); assay: hERG inhibition, CHO cells, automated patch-clamp; assay type: cell-based
5-HT2A = details: cited from earlier work

T1 sequence (P41595 whole entry): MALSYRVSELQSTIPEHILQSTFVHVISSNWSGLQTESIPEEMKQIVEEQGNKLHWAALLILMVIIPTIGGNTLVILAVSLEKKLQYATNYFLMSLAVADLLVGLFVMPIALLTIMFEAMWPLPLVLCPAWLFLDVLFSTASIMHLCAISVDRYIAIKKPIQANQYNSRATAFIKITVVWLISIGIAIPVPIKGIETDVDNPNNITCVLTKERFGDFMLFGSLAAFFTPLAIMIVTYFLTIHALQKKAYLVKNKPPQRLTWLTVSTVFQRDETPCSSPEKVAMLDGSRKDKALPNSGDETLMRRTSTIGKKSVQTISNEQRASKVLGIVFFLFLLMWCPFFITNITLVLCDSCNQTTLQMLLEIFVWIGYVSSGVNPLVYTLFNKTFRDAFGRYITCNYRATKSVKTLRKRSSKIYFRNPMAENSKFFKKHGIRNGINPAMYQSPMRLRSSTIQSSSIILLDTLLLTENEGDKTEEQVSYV
Chain of human 5-HT2A (P28223 whole entry): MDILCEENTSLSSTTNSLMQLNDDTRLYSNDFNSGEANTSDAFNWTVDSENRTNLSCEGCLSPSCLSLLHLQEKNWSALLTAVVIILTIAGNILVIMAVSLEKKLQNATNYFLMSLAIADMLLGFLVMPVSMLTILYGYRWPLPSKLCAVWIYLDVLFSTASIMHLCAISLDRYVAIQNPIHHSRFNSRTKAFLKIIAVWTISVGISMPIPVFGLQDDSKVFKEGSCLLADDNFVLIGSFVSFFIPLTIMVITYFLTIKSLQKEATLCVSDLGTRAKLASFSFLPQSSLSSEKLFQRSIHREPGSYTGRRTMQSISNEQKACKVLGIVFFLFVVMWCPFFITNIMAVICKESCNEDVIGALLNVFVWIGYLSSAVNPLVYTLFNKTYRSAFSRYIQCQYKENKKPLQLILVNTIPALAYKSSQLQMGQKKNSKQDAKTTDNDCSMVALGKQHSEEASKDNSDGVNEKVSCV
Chain of hERG (Homo sapiens, UniProt Q12809) (Q12809 whole entry): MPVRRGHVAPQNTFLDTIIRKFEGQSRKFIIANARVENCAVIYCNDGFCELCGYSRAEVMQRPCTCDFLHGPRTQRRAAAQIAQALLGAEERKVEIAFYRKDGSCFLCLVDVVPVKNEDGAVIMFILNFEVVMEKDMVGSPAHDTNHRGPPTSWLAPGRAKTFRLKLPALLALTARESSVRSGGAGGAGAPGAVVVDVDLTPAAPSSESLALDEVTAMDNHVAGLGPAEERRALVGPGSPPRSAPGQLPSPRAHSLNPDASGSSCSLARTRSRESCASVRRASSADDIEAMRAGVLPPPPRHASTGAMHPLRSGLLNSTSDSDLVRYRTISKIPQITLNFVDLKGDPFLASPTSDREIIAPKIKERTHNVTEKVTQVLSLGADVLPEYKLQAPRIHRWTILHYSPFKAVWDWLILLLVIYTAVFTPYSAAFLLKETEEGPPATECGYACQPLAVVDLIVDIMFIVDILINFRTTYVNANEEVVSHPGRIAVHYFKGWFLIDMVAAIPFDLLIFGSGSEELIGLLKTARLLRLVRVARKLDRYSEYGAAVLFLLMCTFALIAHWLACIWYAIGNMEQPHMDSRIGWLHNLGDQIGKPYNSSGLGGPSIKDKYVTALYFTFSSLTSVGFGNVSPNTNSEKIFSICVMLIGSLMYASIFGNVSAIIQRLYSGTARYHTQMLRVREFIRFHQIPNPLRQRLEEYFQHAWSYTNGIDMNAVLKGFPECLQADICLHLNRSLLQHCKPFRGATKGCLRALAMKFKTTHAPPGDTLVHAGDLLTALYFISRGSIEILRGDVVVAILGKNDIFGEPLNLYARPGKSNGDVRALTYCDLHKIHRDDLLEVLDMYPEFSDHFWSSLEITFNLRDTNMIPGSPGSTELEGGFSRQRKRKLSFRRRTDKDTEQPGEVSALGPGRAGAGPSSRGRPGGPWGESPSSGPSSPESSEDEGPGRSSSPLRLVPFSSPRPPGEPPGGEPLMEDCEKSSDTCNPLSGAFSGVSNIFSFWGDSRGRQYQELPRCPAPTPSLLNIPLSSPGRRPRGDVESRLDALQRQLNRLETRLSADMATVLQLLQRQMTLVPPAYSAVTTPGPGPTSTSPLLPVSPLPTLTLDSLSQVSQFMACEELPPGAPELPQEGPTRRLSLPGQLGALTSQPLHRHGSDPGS

Question: What does the source list for `Clc1cccc(COc2cncc(N3CCNCC3)n2)c1` [CP-809,101, 2-(3-chlorobenzyloxy)-6-(piperazinyl)-pyrazine]?
Answer: 5-HT2C selectivity against 5-HT2B (human 5-HT2B [1]): about 600 fold; genotoxicity [2]: genotoxicity

Question: With `NC[C@H]1C[C@@H]1c1cc(F)ccc1OCC1CC1` [Compound 8] as the molecule, how does the hERG inhibition (hERG [3]) read?
Answer: no hERG inhibition

Question: Which “selectivity for 5-HT2C against 5-HT2A” value (human 5-HT2A) does the source give for `Cl.NC[C@H]1C[C@@H]1c1cc(F)ccc1OCCF` [(+)-16d, (+)-((1S,2S)-2-(5-Fluoro-2-(2-fluoroethoxy)phenyl)-cyclopropyl)methanamine Hydrochloride] here?
Answer: > 100 fold

Question: What about the AMPH-stimulated hyperlocomotion (C57BL/6J mice) of the same molecule?
Answer: not differentiated by dose

Question: And the Ki (human 5-HT2B [4])?
Answer: 30 to 50 nM

Question: What about the Ki (5-HT2C receptor) of the same molecule?
Answer: 30 to 50 nM

Question: What does the source list for `C=CCOc1ccc(F)cc1[C@H]1C[C@@H]1CN.Cl` [(+)-16b, (+)-((1S,2S)-2-(2-(Allyloxy)-5-fluorophenyl)cyclopropyl)-methanamine Hydrochloride]?
Answer: AMPH-stimulated hyperlocomotion at 20 mg/kg (C57BL/6J mice): most efficacious; also recorded: completely reversed; AMPH-stimulated hyperlocomotion (C57BL/6J mice): dose dependently suppressed the hyperactivity; Ki (human 5-HT2B [4]): 30 to 50 nM; Ki (5-HT2C receptor): 30 to 50 nM

Question: For `C=CCOc1ccc(Cl)cc1[C@H]1C[C@@H]1CN.O=C(O)C(F)(F)F` [(+)-13h], which “CYP inhibition at 10 µM, 3A” value (CYP3A) is on record?
Answer: 27%

Question: Which “incidence of cardiac valve disorders” value [5] does the source give for `C[C@H]1CNCCc2ccc(Cl)cc21` [lorcaserin] here?
Answer: higher incidence of cardiac valve disorders

Question: Which results are given for `C=C(C)COc1ccc(Cl)cc1[C@H]1C[C@@H]1CN` [(+)-13k]?
Answer: EC50 (human 5-HT2B [6]): 6090 nM; Emax (human 5-HT2B [6]; read-out: Emax 5-HT2B, normalized to internal 5-HT reference): 39%

Question: With `Cl.NC[C@H]1C[C@@H]1c1cc(Cl)ccc1OCCF` [(+)-13l] as the molecule, how does the concentration at 0.5 h ([7]; brain) read?
Answer: 12800 ng/g

Question: And the concentration at 2 h ([7]; brain)?
Answer: 13400 ng/g

Question: What about the concentration at 0.5 h ([7]; plasma) of the same molecule?
Answer: 1200 ng/mL

Question: What about the concentration at 2 h ([7]; plasma) of the same molecule?
Answer: 874 ng/mL

Question: And the AMPH-stimulated hyperlocomotion (C57BL/6J mice)?
Answer: not differentiated by dose

Question: With `C=C(F)COc1ccc(Cl)cc1[C@H]1C[C@@H]1CN.Cl` [(+)-13j] as the molecule, how does the concentration at 0.5 h ([7]; brain) read?
Answer: 17500 ng/g

Question: What about the concentration at 2 h ([7]; brain) of the same molecule?
Answer: 14700 ng/g

Question: And the concentration at 0.5 h ([7]; plasma)?
Answer: 1440 ng/mL

Question: And the concentration at 2 h ([7]; plasma)?
Answer: 903 ng/mL

Question: And the Ames fluctuation test [8]?
Answer: negative

Question: And the “AMPH-stimulated hyperlocomotion at 20 mg/kg” value (C57BL/6J mice)?
Answer: most efficacious

Question: And the AMPH-stimulated hyperlocomotion (C57BL/6J mice)?
Answer: dose dependently suppressed the hyperactivity

Question: What about the “hERG IC50” value (hERG [9]) of the same molecule?
Answer: moderate inhibition

Question: For `c1cc2c3c(c1)[C@H]1CCC[C@H]1N3CCNC2` [WAY-163909, (7bR,10aR)-1,2,3,4,8,9,10,10a–octahydro-7bH-cyclopenta-[b][1,4]diazepino[6,7,1-hi]indole], which “agonist activity at 5-HT2A” value (5-HT2A) is on record?
Answer: no agonist activity
